Data taken from PMC5979471, “Telomerase Inhibition by a New Synthetic Derivative of the Aporphine Alkaloid Boldine” (International Journal of Molecular Sciences, 2018).
Counter-ions that a name gives are not always drawn.

Target: T1, telomerase (catalytic subunit TERT) (Homo sapiens, UniProt O14746)
T1 construct: with telomerase RNA component TER (endogenous telomerase ribonucleoprotein in MCF7 lysate)
Test: q-TRAP-ligand assay in MCF7 cell lysate, compound added before telomere elongation
Type: biochemical

T1 sequence (O14746 whole entry): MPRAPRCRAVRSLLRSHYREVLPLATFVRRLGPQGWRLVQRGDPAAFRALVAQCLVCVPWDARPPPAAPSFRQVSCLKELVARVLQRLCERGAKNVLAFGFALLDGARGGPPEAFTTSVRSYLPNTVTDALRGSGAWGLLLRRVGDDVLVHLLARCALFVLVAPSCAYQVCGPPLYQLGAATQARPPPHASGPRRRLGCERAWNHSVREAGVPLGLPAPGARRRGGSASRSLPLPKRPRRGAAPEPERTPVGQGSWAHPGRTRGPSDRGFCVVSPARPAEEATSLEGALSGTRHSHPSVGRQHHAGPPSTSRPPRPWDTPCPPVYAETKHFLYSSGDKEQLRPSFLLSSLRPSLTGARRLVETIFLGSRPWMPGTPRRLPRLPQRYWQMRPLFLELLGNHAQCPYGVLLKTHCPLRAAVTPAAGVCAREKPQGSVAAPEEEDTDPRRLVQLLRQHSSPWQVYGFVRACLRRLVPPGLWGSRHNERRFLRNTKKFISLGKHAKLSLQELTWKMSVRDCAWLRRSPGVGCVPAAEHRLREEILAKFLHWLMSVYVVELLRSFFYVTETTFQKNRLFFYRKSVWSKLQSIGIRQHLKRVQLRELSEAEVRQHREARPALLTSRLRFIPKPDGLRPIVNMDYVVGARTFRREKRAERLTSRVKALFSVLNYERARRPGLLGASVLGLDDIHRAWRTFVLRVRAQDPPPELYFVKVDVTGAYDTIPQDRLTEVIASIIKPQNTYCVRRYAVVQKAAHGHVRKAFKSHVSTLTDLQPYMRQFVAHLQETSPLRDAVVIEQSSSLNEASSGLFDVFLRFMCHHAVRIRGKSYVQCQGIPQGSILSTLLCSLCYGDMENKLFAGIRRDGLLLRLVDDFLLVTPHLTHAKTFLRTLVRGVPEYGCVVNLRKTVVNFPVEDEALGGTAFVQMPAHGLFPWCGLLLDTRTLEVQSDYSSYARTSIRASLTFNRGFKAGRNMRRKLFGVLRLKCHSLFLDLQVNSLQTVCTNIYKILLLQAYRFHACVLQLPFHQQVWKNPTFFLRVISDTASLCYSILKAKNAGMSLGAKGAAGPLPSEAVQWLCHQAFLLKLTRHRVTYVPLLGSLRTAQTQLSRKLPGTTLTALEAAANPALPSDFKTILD

SMILES | IC50
COc1cc2c(ccc3c(CCN(C)Cc4ccccc4)cc(O)c(OC)c32)cc1O [BSB, N-benzylsecoboldine hydrochloride] | 0.17 ± 0.1 µM
COc1cc2c(cc1O)C[C@H]1c3c(cc(O)c(OC)c3-2)CCN1C [Boldine, 1,10-dimethoxy-2,9-dihydroxyaporphine] | 68 ± 2.5 µM
